# Key:
# [1] = Compound induced cellular toxicity in HepG2 cells, ATPlite 1Step; assay type: cell-based; settings: human, three days exposure, 50% reduction of total ATP vs no drug controls
# Method: At day 3, post seeding cells are treated with ATPlite 1Step according to the manufacturer's instructions.
# HBV in 2.2.15 cells = test: 2.2.15 cells: viral product in cell lysates quantified via quantitative real time PCR; assay type: cell-based, hepatitis B virus (HBV); settings: Hepatitis B virus, 120 h, day 5 post treatment, 50% reduction of viral product vs no drug controls, readout (qPCR, HBsAg or HBeAg) not specified for the column
# How it was run: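 HBV product was measured at day 5 by lysate qPCR or by supernatant HBsAg/HBeAg ELISA, in 2.2.15 cells seeded at 35,000/well and exposed to 5-fold compound dilution series (0.5% DMSO). EC50 is 50% reduction of viral product relative to untreated controls.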
Compound,CC50 at 3 days [1],EC50 (HBV in 2.2.15 cells)
"CC(C)(C)[C@@H]1Cn2nnc(-c3ccc(F)cc3)c2-c2cc(=O)c(C(=O)O)cn21 [Example 208, (R)-6-(tert-butyl)-1-(4-fluorophenyl)-10-oxo-5,6-dihydro-10H-pyrido[1,2-a][1,2,3]triazolo[5,1-c]pyrazine-9-carboxylic acid]",> 25 µM,< 0.1 µM
"Cc1cccc(C)c1-c1cc2n(n1)C[C@@H](C(C)(C)C)n1cc(C(=O)O)c(=O)cc1-2 [Example 62, (R)-6-(tert-butyl)-2-(2,6-dimethylphenyl)-10-oxo-5,6-dihydro-10H-pyrazolo[1,5-a]pyrido[2,2-c]pyrazine-12-carboxylic acid]",> 25 µM,0.2 to 1 µM
"CC(C)[C@@H]1Cn2nc(-c3ccccc3F)c(-c3ccccc3F)c2-c2c(F)c(=O)c(C(=O)O)cn21 [Example 182, (R)-11-fluoro-1,2-bis(2-fluorophenyl)-6-isopropyl-10-oxo-5,6-dihydro-10H-pyrazolo[1,5-a]pyrido[2,1-c]pyrazine-9-carboxylic acid]",> 25 µM,< 0.1 µM
"COc1cccc(-c2c(C3CC3)nn3c2-c2cc(=O)c(C(=O)O)cn2[C@H](C(C)(C)C)C3)c1 [Example 157, (R)-6-(tert-butyl)-2-cyclopropyl-1-(3-methoxyphenyl)-10-oxo-5,6-dihydro-10H-pyrazolo[1,5-a]pyrido[2,1-c]pyrazine-9-carboxylic acid]",> 25 µM,< 0.1 µM
"CC(C)(C)[C@@H]1Cn2ncc(-c3cccc4c3OC(F)(F)O4)c2-c2cc(=O)c(C(=O)O)cn21 [Example 111, (R)-6-(tert-butyl)-1-(2,2-difluorobenzo[d][1,3]dioxol-4-yl)-10-oxo-5,6-dihydro-10H-pyrazolo[1,5-a]pyrido[2,1-c]pyrazine-9-carboxylic acid]",> 25 µM,< 0.1 µM
"CC(C)(C)[C@@H]1Cn2nc(C3CC3)c(-c3ccc(F)cc3)c2-c2cc(=O)c(-c3ncn[nH]3)cn21 [Example 196, (R)-6-(tert-butyl)-2-cyclopropyl-1-(4-fluorophenyl)-9-(1H-1,2,4-triazol-5-yl)-5,6-dihydro-10H-pyrazolo[1,5-a]pyrido[2,1-c]pyrazin-10-one]",> 25 µM,< 0.1 µM
"CC(C)(C)[C@@H]1Cn2nc(-c3cccc(F)c3)cc2-c2cc(=O)c(C(=O)O)cn21 [Example 2, (R)-6-(tert-butyl)-2-(3-fluorophenyl)-10-oxo-5,6-dihydro-10H-pyrazolo[1,5-a]pyrido[2,2-c]pyrazine-12-carboxylic acid]",> 25 µM,< 0.1 µM
"CC(C)[C@@H]1Cn2nc(-c3cccc(F)c3)c(-c3cccc(F)c3)c2-c2cc(=O)c(C(=O)O)cn21 [Example 181, (R)-1,2-bis(3-fluorophenyl)-6-isopropyl-10-oxo-5,6-dihydro-10H-pyrazolo[1,5-a]pyrido[2,1-c]pyrazine-9-carboxylic acid]",10 to 25 µM,< 0.1 µM
"CC(C)[C@@H]1Cn2nc(-c3cccc(F)c3)c(-c3cccc(F)c3)c2-c2c(F)c(=O)c(C(=O)O)cn21 [Example 188, (R)-11-fluoro-1,2-bis(3-fluorophenyl)-6-isopropyl-10-oxo-5,6-dihydro-10H-pyrazolo[1,5-a]pyrido[2,1-c]pyrazine-9-carboxylic acid]",> 25 µM,< 0.1 µM
"Cc1cccc(F)c1-c1cc2n(n1)C[C@@H](C(C)(C)C)n1cc(C(=O)O)c(=O)cc1-2 [Example 51, (R)-6-(tert-butyl)-2-(2-fluoro-6-methylphenyl)-10-oxo-5,6-dihydro-10H-pyrazolo[1,5-a]pyrido[2,2-c]pyrazine-12-carboxylic acid]",> 25 µM,0.2 to 1 µM
"CC(C)[C@@H]1Cn2nc(-c3ccccc3F)c(-c3ccccc3F)c2-c2cc(=O)c(C(=O)O)cn21 [Example 171, (R)-1,2-bis(2-fluorophenyl)-6-isopropyl-10-oxo-5,6-dihydro-10H-pyrazolo[1,5-a]pyrido[2,1-c]pyrazine-9-carboxylic acid]",> 25 µM,< 0.1 µM
"CC(C)(C)[C@@H]1Cn2nc(-c3ccccc3F)c(-c3ccccc3F)c2-c2cc(=O)c(C(=O)O)cn21 [Example 95, (R)-6-(tert-butyl)-1,2-bis(2-fluorophenyl)-10-oxo-5,6-dihydro-10H-pyrazolo[1,5-a]pyrido[2,1-c]pyrazine-9-carboxylic acid]",> 25 µM,< 0.1 µM
"CC(C)(C)[C@@H]1Cn2nc(-c3ccccc3OC(F)F)cc2-c2cc(=O)c(C(=O)O)cn21 [Example 68, (R)-6-(tert-butyl)-2-(2-(difluoromethoxy)phenyl)-10-oxo-5,6-dihydro-10H-pyrazolo[1,5-a]pyrido[2,2-c]pyrazine-12-carboxylic acid]",> 25 µM,< 0.1 µM
"CC(C)(C)[C@@H]1Cn2nc(-c3c(F)cccc3F)cc2-c2cc(=O)c(C(=O)O)cn21 [Example 29, (R)-6-(tert-butyl)-2-(2,6-difluorophenyl)-10-oxo-5,6-dihydro-10H-pyrazolo[1,5-a]pyrido[2,2-c]pyrazine-12-carboxylic acid]",> 25 µM,< 0.1 µM
"CC(C)(C)[C@@H]1Cn2nc(-c3cccc4c3OCCO4)cc2-c2cc(=O)c(C(=O)O)cn21 [Example 57, (R)-6-(tert-butyl)-2-(2,3-dihydrobenzo[b][1,4]dioxin-5-yl)-10-oxo-5,6-dihydro-10H-pyrazolo[1,5-a]pyrido[2,2-c]pyrazine-12-carboxylic acid]",> 25 µM,< 0.1 µM
"CC(C)[C@@H]1Cn2nc(C3CC3)c(-c3ccoc3)c2-c2cc(=O)c(C(=O)O)cn21 [Example 132, (R)-2-cyclopropyl-1-(furan-3-yl)-6-isopropyl-10-oxo-5,6-dihydro-10H-pyrazolo[1,5-a]pyrido[2,1-c]pyrazine-9-carboxylic acid]",> 25 µM,< 0.1 µM
"CC(C)(C)[C@@H]1Cn2nc(-c3ccc(F)cc3)cc2-c2cc(=O)c(C(=O)O)cn21 [Example 1, (R)-6-(tert-butyl)-2-(4-fluorophenyl)-10-oxo-5,6-dihydro-10H-pyrazolo[1,5-a]pyrido[2,2-c]pyrazine-12-carboxylic acid]",> 25 µM,< 0.1 µM
"COc1cccc(-c2cc3n(n2)C[C@@H](C(C)(C)C)n2cc(C(=O)O)c(=O)cc2-3)c1 [Example 11, (R)-6-(tert-butyl)-2-(3-methoxyphenyl)-10-oxo-5,6-dihydro-10H-pyrazolo[1,5-a]pyrido[2,2-c]pyrazine-12-carboxylic acid]",> 25 µM,< 0.1 µM
"COc1ccc(-c2cnn3c2-c2cc(=O)c(C(=O)O)cn2[C@H](C(C)(C)C)C3)cc1 [Example 114, (R)-6-(tert-butyl)-1-(4-methoxyphenyl)-10-oxo-5,6-dihydro-10H-pyrazolo[1,5-a]pyrido[2,1-c]pyrazine-9-carboxylic acid]",> 25 µM,< 0.1 µM
"CC(C)(C)[C@@H]1Cn2ncc(-c3cccs3)c2-c2cc(=O)c(C(=O)O)cn21 [Example 109, (R)-6-(tert-butyl)-10-oxo-1-(thiophen-2-yl)-5,6-dihydro-10H-pyrazolo[1,5-a]pyrido[2,1-c]pyrazine-9-carboxylic acid]",> 25 µM,< 0.1 µM
CC(C)(C)[C@@H]1Cn2nc(-c3ccccc3C(F)F)cc2-c2cc(=O)c(C(=O)O)cn21 [Example 85],> 25 µM,0.2 to 1 µM
"CC(C)[C@@H]1Cn2nc(C3CC3)c(-c3ccccc3F)c2-c2cc(=O)c(C(=O)O)cn21 [Example 129, (R)-2-cyclopropyl-1-(2-fluorophenyl)-6-isopropyl-10-oxo-5,6-dihydro-10H-pyrazolo[1,5-a]pyrido[2,1-c]pyrazine-9-carboxylic acid]",> 25 µM,< 0.1 µM
"CC(C)(C)[C@@H]1Cn2nc(-c3cccc4nsnc34)cc2-c2cc(=O)c(C(=O)O)cn21 [Example 63, (R)-2-(benzo[c][1,2,5]thiadiazol-4-yl)-6-(tert-butyl)-10-oxo-5,6-dihydro-10H-pyrazolo[1,5-a]pyrido[2,2-c]pyrazine-12-carboxylic acid]",> 25 µM,< 0.1 µM
"CC(C)(C)[C@@H]1Cn2nc(-c3ccccc3OC(F)(F)F)cc2-c2cc(=O)c(C(=O)O)cn21 [Example 24, (R)-6-(tert-butyl)-10-oxo-2-(2-(trifluoromethoxy)phenyl)-5,6-dihydro-10H-pyrazolo[1,5-a]pyrido[2,2-c]pyrazine-12-carboxylic acid]",> 25 µM,< 0.1 µM
"CC(C)c1ccccc1-c1cc2n(n1)C[C@@H](C(C)(C)C)n1cc(C(=O)O)c(=O)cc1-2 [Example 83, (R)-6-(tert-butyl)-2-(2-isopropylphenyl)-10-oxo-5,6-dihydro-10H-pyrazolo[1,5-a]pyrido[2,2-c]pyrazine-12-carboxylic acid]",> 25 µM,0.2 to 1 µM
"CCOc1ccc(F)cc1-c1cc2n(n1)C[C@@H](C(C)(C)C)n1cc(C(=O)O)c(=O)cc1-2 [Example 73, (R)-6-(tert-butyl)-2-(2-ethoxy-5-fluorophenyl)-10-oxo-5,6-dihydro-10H-pyrazolo[1,5-a]pyrido[2,2-c]pyrazine-12-carboxylic acid]",> 25 µM,< 0.1 µM
"CC(C)(C)[C@@H]1Cn2nc(-c3cc(F)ccc3C#N)cc2-c2cc(=O)c(C(=O)O)cn21 [Example 42, (R)-6-(tert-butyl)-2-(2-cyano-5-fluorophenyl)-10-oxo-5,6-dihydro-10H-pyrazolo[1,5-a]pyrido[2,2-c]pyrazine-12-carboxylic acid]",> 25 µM,< 0.1 µM
